# Experimental data: PMC10026764, “Overcoming the imatinib-resistant BCR-ABL mutants with new ureidobenzothiazole chemotypes endowed with potent and broad-spectrum anticancer activity” (Journal of Enzyme Inhibition and Medicinal Chemistry, 2023)
# Values joined by “and” are separate entries in the source; they are usually repeats but may differ in a detail not shown here. Identical values can stand only once.
# How the values were obtained:
# HCT-15 = test: NCI-60 five-dose SRB assay; type: cell-based, human; conditions: HCT-15, colon cancer; for GI50 / CC50: Homo sapiens; for CC50: read-out: LC50 (the source's name)
# MDA-MB-231 = test: NCI-60 five-dose SRB assay; type: cell-based; conditions: Homo sapiens; MDA-MB-231, breast cancer
# A549/ATCC = test: NCI-60 five-dose SRB assay; type: cell-based; conditions: Homo sapiens, non-small cell lung cancer
# K-562 = test: NCI-60 five-dose SRB assay; type: cell-based, human; conditions: K-562, leukaemia
# leukaemia K-562 cells = test: MTT antiproliferative assay; conditions: for GI50: Homo sapiens, K562, 72 h, read-out: GI50 K-562; for SI: selectivity index (GI50 (L132)/GI50 (K562)): MTT, 72 h
# From the text: (§1) These cellular outcomes define the impact of BCR-ABL inhibition on the proliferation of K-562 cells.
# SK-MEL-5 = test: cells; type: cell-based; conditions: SK-MEL-5, melanoma; for GI50 / LC50 (50% lethal concentration): Homo sapiens
# L132 normal cell = test: MTT antiproliferative assay; conditions: Homo sapiens, L132, 72 h, read-out: GI50 L132
# From the text: as §1
# SF-268 = test: NCI-60 five-dose SRB assay; type: cell-based; conditions: Homo sapiens; SF-268, CNS cancer
# OVCAR-5 = test: NCI-60 five-dose SRB assay; type: cell-based, human; conditions: OVCAR-5, ovarian cancer; for GI50 / LC50 (50% net cell kill): Homo sapiens
# MALME-3M = test: NCI-60 five-dose SRB assay; type: cell-based; conditions: Homo sapiens, melanoma
# U251 = test: cells; type: cell-based; conditions: U251, CNS cancer; for GI50 / CC50: Homo sapiens, U-251; for CC50: read-out: LC50 (the source's name)
# HCC-2998 = test: NCI-60 five-dose SRB assay; type: cell-based; conditions: Homo sapiens; HCC-2998, colon cancer
# SN12C = test: NCI-60 five-dose SRB assay; type: cell-based; conditions: Homo sapiens, renal cancer
# SK-MEL-28 = test: NCI-60 five-dose SRB assay; type: cell-based; conditions: Homo sapiens; SK-MEL-28, melanoma
# 786-0 = test: NCI-60 five-dose SRB assay; type: cell-based; conditions: Homo sapiens; 786-0, renal cancer
# HS 578T = test: NCI-60 five-dose SRB assay; type: cell-based; conditions: Homo sapiens, breast cancer
# ACHN = test: NCI-60 five-dose SRB assay; type: cell-based, human; conditions: renal cancer; for GI50 / CC50: Homo sapiens; for CC50: read-out: LC50 (the source's name)
# OVCAR-8 = test: NCI-60 five-dose SRB assay; type: cell-based; conditions: Homo sapiens; OVCAR-8, ovarian cancer
# A498 = test: NCI-60 five-dose SRB assay; type: cell-based; conditions: Homo sapiens; A498, renal cancer
# BCR-ABL^T315I = target: T1, BCR-ABL^T315I (Homo sapiens, UniProt P00519, T315I); test: In vitro kinase screening (RBC), BCR-ABL^T315I; type: biochemical; conditions: 10-dose IC50 mode, 3-fold serial dilution, 10 μM ATP
# T1 construct: purchased Reaction Biology Corporation (RBC, Malvern, PA, USA)
# PC-3 = test: NCI-60 five-dose SRB assay; type: cell-based; conditions: Homo sapiens; PC-3, prostate cancer
# KM12 = test: NCI-60 five-dose SRB assay; type: cell-based; conditions: Homo sapiens; KM12, colon cancer
# HT29 = test: NCI-60 five-dose SRB assay; type: cell-based, human; conditions: HT29, colon cancer; for GI50 / CC50: Homo sapiens, HT-29; for CC50: read-out: LC50 (the source's name)
# RPMI-8226 = test: NCI-60 five-dose SRB assay; type: cell-based; conditions: Homo sapiens; RPMI-8226, leukaemia
# IGROV1 = test: NCI-60 five-dose SRB assay; type: cell-based; conditions: Homo sapiens, IGROV-1; IGROV1, ovarian cancer
# BT-549 = test: NCI-60 five-dose SRB assay; type: cell-based; conditions: Homo sapiens; BT-549, breast cancer
# TK-10 = test: NCI-60 five-dose SRB assay; type: cell-based; conditions: Homo sapiens; TK-10, renal cancer
# MDA-MB-468 = test: NCI-60 five-dose SRB assay; type: cell-based; conditions: Homo sapiens; MDA-MB-468, breast cancer
# OVCAR-4 = test: NCI-60 five-dose SRB assay; type: cell-based; conditions: Homo sapiens; OVCAR-4, ovarian cancer
# SK-MEL-2 = test: NCI-60 five-dose SRB assay; type: cell-based; conditions: Homo sapiens; SK-MEL-2, melanoma
# COLO 205 = test: NCI-60 five-dose SRB assay; type: cell-based; conditions: Homo sapiens; COLO 205, colon cancer
# NCI-H322M = test: NCI-60 five-dose SRB assay; type: cell-based, human; conditions: for CC50 / GI50: Homo sapiens; for CC50 / TGI: NSCL cancer; for CC50: read-out: LC50 (the source's name); for GI50: non-small cell lung cancer
# SF-295 = test: NCI-60 five-dose SRB assay; type: cell-based; conditions: Homo sapiens; SF-295, CNS cancer
# SNB-19 = test: NCI-60 five-dose SRB assay; type: cell-based; conditions: Homo sapiens; SNB-19, CNS cancer
# NCI-H522 = test: NCI-60 five-dose SRB assay; type: cell-based, human
# MCF7 = test: NCI-60 five-dose SRB assay; type: cell-based, human; conditions: MCF7, breast cancer; for GI50 / CC50: Homo sapiens; for CC50: read-out: LC50 (the source's name)
# HCT-116 = test: NCI-60 five-dose SRB assay; type: cell-based; conditions: Homo sapiens; HCT-116, colon cancer
# CCRF-CEM = test: NCI-60 five-dose SRB assay; type: cell-based; conditions: Homo sapiens, leukaemia
# LOX IMVI = test: NCI-60 five-dose SRB assay; type: cell-based; conditions: Homo sapiens, melanoma
# [1] = Homo sapiens, NCI-H522, NCI-H522, non-small cell lung cancer
structure (smiles),measurement,setting,value
CCN1CCN(c2ccc(NC(=O)Nc3nc4ccc(-c5ccccc5OC)cc4s3)cc2)CC1 [Compound 2b],TGI,HCT-15,2470 nM
same,GI50,HCT-15,1200 nM
same,CC50,HCT-15,5060 nM
same,GI50,MDA-MB-231,1720 nM
same,GI50,A549/ATCC,1980 nM
same,GI50,"K-562; Homo sapiens, K562",293 nM
same,TGI,K-562,1340 nM
same,GI50,leukaemia K-562 cells,3390 nM
same,SI: selectivity index (GI50 (L132)/GI50 (K562)),leukaemia K-562 cells,5.3
same,GI50,SK-MEL-5,1730 nM
same,LC50 (50% lethal concentration),SK-MEL-5,5630 nM
same,TGI,SK-MEL-5,3120 nM
same,GI50,L132 normal cell,17900 nM
same,GI50,SF-268,1870 nM
same,GI50,OVCAR-5,1800 nM
same,LC50 (50% net cell kill),OVCAR-5,6330 nM
same,TGI,OVCAR-5,3370 nM
same,GI50,MALME-3M,1710 nM
same,GI50,U251,1570 nM
same,CC50,U251,5510 nM
same,TGI,U251,2940 nM
same,GI50,HCC-2998,1830 nM
same,GI50,SN12C,1770 nM
same,GI50,SK-MEL-28,1760 nM
same,GI50,786-0,1800 nM
same,GI50,HS 578T,1950 nM
same,GI50,ACHN,1740 nM
same,CC50,ACHN,5580 nM
same,TGI,ACHN,3110 nM
same,GI50,OVCAR-8,1990 nM
same,GI50,A498,1800 nM
same,IC50,BCR-ABL^T315I,0.65 nM and 0.651 nM
same,GI50,PC-3,1790 nM
same,GI50,KM12,1750 nM
same,TGI,HT29,2700 nM
same,GI50,HT29,1310 nM
same,CC50,HT29,5570 nM
same,GI50,RPMI-8226,2060 nM
same,GI50,IGROV1,1870 nM
same,GI50,BT-549,1880 nM
same,GI50,TK-10,2120 nM
same,GI50,MDA-MB-468,2170 nM
same,GI50,OVCAR-4,1680 nM
same,GI50,SK-MEL-2,1940 nM
same,GI50,COLO 205,1970 nM
same,CC50,NCI-H322M,5990 nM
same,GI50,NCI-H322M,1530 nM
same,TGI,NCI-H322M,3030 nM
same,GI50,SF-295,1680 nM
same,GI50,SNB-19,2030 nM
same,GI50,NCI-H522; [1],~1760 nM
same,GI50,"NCI-H522; NCI-H522, non-small cell lung cancer",1750 nM
same,GI50,MCF7,1310 nM
same,CC50,MCF7,6250 nM
same,TGI,MCF7,2860 nM
same,GI50,HCT-116,1580 nM
same,GI50,CCRF-CEM,1810 nM
same,GI50,LOX IMVI,1700 nM
COc1ccccc1-c1ccc2nc(NC(=O)Nc3cc(C(F)(F)F)cc(C(F)(F)F)c3)sc2c1 [Compound 2e],TGI,HCT-15,10600 nM
same,GI50,HCT-15,2550 nM
same,CC50,HCT-15,34600 nM
same,GI50,MDA-MB-231,1950 nM
same,GI50,A549/ATCC,3190 nM
same,GI50,"K-562; Homo sapiens, K562",1540 nM
same,CC50,"K-562; Homo sapiens, K562, read-out: LC50 (the source's name)",43900 nM
same,TGI,K-562,8950 nM
same,GI50,leukaemia K-562 cells,13900 nM
same,SI: selectivity index (GI50 (L132)/GI50 (K562)),leukaemia K-562 cells,2.5
same,GI50,SK-MEL-5,1570 nM
same,LC50 (50% lethal concentration),SK-MEL-5,5640 nM
same,TGI,SK-MEL-5,2980 nM
same,GI50,L132 normal cell,35000 nM
same,GI50,SF-268,2860 nM
same,GI50,OVCAR-5,2540 nM
same,LC50 (50% net cell kill),OVCAR-5,32700 nM
same,TGI,OVCAR-5,9660 nM
same,GI50,MALME-3M,1810 nM
same,GI50,U251,2310 nM
same,CC50,U251,34400 nM
same,TGI,U251,10300 nM
same,GI50,HCC-2998,2650 nM
same,GI50,SN12C,1700 nM
same,GI50,SK-MEL-28,2510 nM
same,GI50,786-0,1440 nM
same,GI50,HS 578T,2350 nM
same,GI50,ACHN,2140 nM
same,CC50,ACHN,28200 nM
same,TGI,ACHN,7710 nM
same,GI50,OVCAR-8,3040 nM
same,GI50,A498,1640 nM
same,IC50,BCR-ABL^T315I,9560 nM
same,GI50,PC-3,1490 nM
same,GI50,KM12,2070 nM
same,TGI,HT29,9210 nM
same,GI50,HT29,2150 nM
same,CC50,HT29,33000 nM
same,GI50,RPMI-8226,1630 nM
same,GI50,IGROV1,2830 nM
same,GI50,BT-549,1620 nM
same,GI50,TK-10,4030 nM
same,GI50,MDA-MB-468,1520 nM
same,GI50,OVCAR-4,2120 nM
same,GI50,SK-MEL-2,2090 nM
same,GI50,COLO 205,1650 nM
same,CC50,NCI-H322M,37000 nM
same,GI50,NCI-H322M,2780 nM
same,TGI,NCI-H322M,9060 nM
same,GI50,SF-295,2640 nM
same,GI50,SNB-19,2440 nM
same,GI50,NCI-H522; [1],1760 nM
same,GI50,MCF7,2280 nM
same,CC50,MCF7,46200 nM
same,TGI,MCF7,10900 nM
same,GI50,HCT-116,1070 nM
same,GI50,CCRF-CEM,2430 nM
same,GI50,LOX IMVI,1680 nM
Cc1ccc(NC(=O)c2ccc(CN3CCN(C)CC3)cc2)cc1Nc1nccc(-c2cccnc2)n1 [Imatinib],GI50,leukaemia K-562 cells,800 nM
same,GI50,L132 normal cell,> 10000 nM
